From patent US6653300B2, “Pyrazole compounds useful as protein kinase inhibitors” (Vertex Pharmaceuticals Incorporated, priority 2000, dated 2003) come the findings set out here.

In general, Ki refers to the dissociation constant of the complex between target and ligand, obtained from inhibition or displacement. In general, melting point refers to the temperature, or range, at which the solid turns liquid.

Where two headings read alike, the source gives them in different places.

Series [1] concerns the target T1, Aurora-2 (Homo sapiens, UniProt O14965).
T1 sequence (O14965 1-403): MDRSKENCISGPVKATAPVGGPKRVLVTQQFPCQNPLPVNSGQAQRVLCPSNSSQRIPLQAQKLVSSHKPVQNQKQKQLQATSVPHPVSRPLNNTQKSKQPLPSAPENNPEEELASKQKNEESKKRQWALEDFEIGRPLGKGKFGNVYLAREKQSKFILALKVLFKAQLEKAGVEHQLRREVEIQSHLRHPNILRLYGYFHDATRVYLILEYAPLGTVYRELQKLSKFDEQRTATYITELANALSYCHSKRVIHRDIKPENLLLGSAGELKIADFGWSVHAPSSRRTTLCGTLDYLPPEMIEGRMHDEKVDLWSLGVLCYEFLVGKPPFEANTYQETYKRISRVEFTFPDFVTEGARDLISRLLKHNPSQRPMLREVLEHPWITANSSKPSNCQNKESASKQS
Briefly: Ki determination for the inhibition of Aurora-2 (coupled enzyme assay). The series is classed as biochemical. Particulars: 70 nM Aurora-2, 30° C. The method, boiled down: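 Ki came from reaction rates plotted against inhibitor concentration, with rates taken as A340 decrease over 5 min at 30° C. Enzyme (70 nM final) was added after 10 min compound preincubation; stock buffer held […], 800 μM LRRASLG, PK/LDH coupling, pH 7.5.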

The target of series [2] is T2, GSK-3β (AA 1-420) (Homo sapiens, UniProt P49841).
T2 construct: GSK-3β (AA 1-420)
Kind of series: Ki determination for the inhibition of GSK-3 (coupled enzyme system). Particulars: 20 μM ATP, 20 nM GSK-3β, 30° C. The series is classed as biochemical. The method, boiled down:
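GSK-3β (AA 1-420, 20 nM) was run in a pyruvate kinase/LDH-coupled NADH assay in 100 mM HEPES pH 7.5, 10 mM MgCl2, 25 mM NaCl, 1 mM DTT, 1.5% DMSO, with 300 μM phosphopeptide substrate. Compound (0.002–30 μM) was preincubated 10 min at 30° C, then 20 μM ATP was added.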

Series [3] concerns the target T3, human Src kinase (Homo sapiens, UniProt P12931).
T3 construct: full length recombinant human Src kinase (from Upstate Biotechnology, cat. no. 14-117); purchased Upstate Biotechnology 14-117; host or cells: baculo viral cells
Kind of series: SRC inhibition assay (radioactivity-based or spectrophotometric assay). The series is classed as biochemical. Particulars: recombinant human Src kinase, assay A or B. As for the experimental part: The compounds were evaluated as inhibitors of human Src kinase using either a radioactivity-based assay or spectrophotometric assay. The compounds were assayed as inhibitors of full length recombinant human Src kinase (from Upstate Biotechnology, cat. no. 14-117) expressed and purified from baculo viral cells. […] P-0275). […] In a typical assay, all the reaction components with the exception of ATP were pre-mixed and aliquoted into assay plate wells. […] The assay plate was incubated at 30° C. for 10 min before initiating the reaction with ^33P-ATP. After 20 min of reaction, the reactions were quenched with 150 μl of 10% trichloroacetic acid (TCA) containing 20 mM Na3PO4. The quenched samples were then transferred to a 96-well filter plate (Whatman, UNI-Filter GF/F Glass Fiber Filter, cat no. 7700-3310) installed on a filter plate vacuum manifold. Filter plates were washed four times with 10% TCA containing 20 mM Na3PO4 and then 4 times with methanol. 200 μl of scintillation fluid was then added to each well. The plates were sealed and the amount of radioactivity associated with the filters was quantified on a TopCount scintillation counter. The radioactivity incorporated was plotted as a function of the inhibitor concentration. The data was fitted to a competitive inhibition kinetics model to get the Ki for the compound. The ADP produced from ATP by the human recombinant Src kinase-catalyzed phosphorylation of poly Glu-Tyr substrate was quanitified using a coupled enzyme assay (Fox et al (1998) Protein Sci 7, 2249). In this assay one molecule of NADH is oxidised to NAD for every molecule of ADP produced in the kinase reaction. The disappearance of NADH can be conveniently followed at 340 nm. […] In a typical assay, all the reaction components with the exception of ATP were pre-mixed and aliquoted into assay plate wells. […] The absorbance change at 340 nm with time, the rate of the reaction, was monitored on a molecular devices plate reader. The data of rate as a function of the inhibitor concentration was fitted to competitive inhibition kinetics model to get the Ki for the compound.

T2 sequence (P49841 whole entry, the tested form may be a part): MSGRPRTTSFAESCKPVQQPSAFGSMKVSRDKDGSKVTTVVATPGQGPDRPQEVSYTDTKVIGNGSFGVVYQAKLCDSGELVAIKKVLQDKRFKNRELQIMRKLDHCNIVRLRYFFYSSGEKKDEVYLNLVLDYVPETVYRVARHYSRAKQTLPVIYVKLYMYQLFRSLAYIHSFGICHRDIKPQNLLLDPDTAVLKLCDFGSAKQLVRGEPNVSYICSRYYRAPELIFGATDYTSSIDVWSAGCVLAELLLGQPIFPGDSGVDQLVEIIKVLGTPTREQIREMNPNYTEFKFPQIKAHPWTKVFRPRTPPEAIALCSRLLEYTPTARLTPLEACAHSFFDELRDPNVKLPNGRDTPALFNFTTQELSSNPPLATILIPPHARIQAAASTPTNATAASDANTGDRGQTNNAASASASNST
T3 sequence (P12931 whole entry): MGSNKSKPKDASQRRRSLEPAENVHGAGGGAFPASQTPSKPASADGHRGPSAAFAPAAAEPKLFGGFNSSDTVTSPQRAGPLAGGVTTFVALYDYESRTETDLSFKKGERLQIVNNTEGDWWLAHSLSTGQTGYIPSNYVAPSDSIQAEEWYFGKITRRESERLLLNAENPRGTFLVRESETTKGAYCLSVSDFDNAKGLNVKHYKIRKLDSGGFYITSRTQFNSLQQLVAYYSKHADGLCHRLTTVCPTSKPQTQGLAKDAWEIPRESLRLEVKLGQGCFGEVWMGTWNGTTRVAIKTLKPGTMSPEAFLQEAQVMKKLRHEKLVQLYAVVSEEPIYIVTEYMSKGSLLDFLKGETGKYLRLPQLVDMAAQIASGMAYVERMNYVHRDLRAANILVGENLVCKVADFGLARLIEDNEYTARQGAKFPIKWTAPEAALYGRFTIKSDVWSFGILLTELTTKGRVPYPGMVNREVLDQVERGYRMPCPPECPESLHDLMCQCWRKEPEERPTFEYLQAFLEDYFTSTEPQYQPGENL

Compound `Clc1cccc(Sc2nc(Nc3cc(C4CC4)[nH]n3)c3ccccc3n2)c1` [IIa-31, [2-(3-Chlorophenylsulfanyl)-quinazolin-4-yl]-(5-cyclopropyl-2H-pyrazol-3-yl)-amine] registered a melting point of 235 to 238 °C. Also, the Ki in series [1] is < 100 nM. In addition, the Ki in series [2] is < 100 nM. The Ki in series [3] (read-out: Ki value on SRC) was < 100 nM.
`Cc1cc(Nc2nc(Sc3ccc(NC(=O)CN(C)C)cc3)nc3ccccc23)n[nH]1` [IIa-68, {2-[4-(2-Dimethylamino-acetylamino)-phenylsulfanyl]-quinazolin-4-yl}-(5-methyl-2H-pyrazol-3-yl)-amine] yielded a melting point of 241 to 243 °C. For the same compound, in series [1], the Ki is < 100 nM. The compound further displayed a Ki in series [2] of 1000 to 7000 nM. Also, the Ki in series [3] (read-out: Ki value for SRC) lay in the range of 1000 to 6000 nM.
In the case of `Fc1ccc(Sc2nc(Nc3cc(C4CC4)[nH]n3)c3ccccc3n2)c(F)c1` [IIa-28, (5-Cyclopropyl-2H-pyrazol-3-yl)-[2-(2,4-difluorophenylsulfanyl)-quinazolin-4-yl]-amine], the melting point was 250 to 253 °C. Further, in series [1], the Ki was < 100 nM. Also, the Ki in series [2] is < 100 nM. Moreover, in series [3] (read-out: Ki value on SRC), the Ki is < 100 nM.
For the compound `CCc1cccc(Nc2nc(Nc3cc(C4CC4)[nH]n3)c3ccccc3n2)c1` [IIc-41, (5-Cyclopropyl-2H-pyrazol-3-yl)-[2-(3-ethylphenylamino)-quinazolin-4-yl]-amine], the melting point lay within 186 to 188 °C. Moreover, the Ki in series [1] is < 100 nM. In series [2], the Ki lay in the range of 100 to 1000 nM. For the same compound, the Ki in series [3] (read-out: Ki value on SRC) was < 100 nM.
`COc1ccc(Nc2nc(Nc3cc(C4CC4)[nH]n3)c3ccccc3n2)cc1OC` [IIc-43, (5-Cyclopropyl-2H-pyrazol-3-yl)-[2-(3,4-dimethoxyphenylamino)-quinazolin-4-yl]-amine] registered a melting point of 144 °C. Moreover, in series [1], the Ki is < 100 nM. The compound also displayed a Ki in series [2] of 100 to 1000 nM. Also, the Ki in series [3] (read-out: Ki value on SRC) is < 100 nM.
The compound `c1cncc(CNc2nc(Nc3cc(C4CC4)[nH]n3)c3ccccc3n2)c1` [IIc-38, (5-Cyclopropyl-2H-pyrazol-3-yl)-[2-(pyridin-3-ylmethylamino)-quinazolin-4-yl]-amine] displayed a melting point of 193 °C. Moreover, the Ki in series [1] was < 100 nM. For the same compound, the Ki in series [2] was < 100 nM. Moreover, the Ki in series [3] (read-out: Ki value on SRC) is < 100 nM.
`CC(=O)Nc1ccc(Sc2nc(Nc3cc(C)[nH]n3)c3ccc(O)cc3n2)cc1` [IIa-74, [2-(4-Acetamidophenylsulfanyl)-7-hydroxy-quinazolin-4-yl]-(5-methyl-2H-pyrazol-3-yl)-amine] returned a melting point of 246 to 248 °C. Further, the Ki in series [1] is < 100 nM. The compound further returned a Ki in series [2] of 1000 to 7000 nM. For the same compound, the Ki in series [3] (read-out: Ki value for SRC) lay in the range of 1000 to 6000 nM.
`Cc1ccc(Nc2nc(Nc3cc(C4CC4)[nH]n3)c3ccccc3n2)cc1C` [IIc-33, (5-Cyclopropyl-2H-pyrazol-3-yl)-[2-(3,4-dimethylphenylamino)-quinazolin-4-yl]-amine] yielded a melting point of 245 to 246 °C. For the same compound, the Ki in series [1] is < 100 nM. In addition, in series [2], the Ki is 100 to 1000 nM. For the same compound, the inhibition constant (Ki) in series [3] (read-out: Ki value on SRC) is < 100 nM.
With `Cc1cccc(Nc2nc(Nc3cc(C4CC4)[nH]n3)c3ccccc3n2)c1` [IIc-19, (5-Cyclopropyl-2H-pyrazol-3-yl)-[2-(3-methylphenylamino)-quinazolin-4-yl]-amine], the melting point is 117 °C. Also, the inhibition constant (Ki) in series [1] was < 100 nM. This compound also gave a Ki in series [2] of 100 to 1000 nM. Further, the Ki in series [3] (read-out: Ki value on SRC) was < 100 nM.
The compound `Cc1cc(Nc2nc(Nc3cc(C4CC4)[nH]n3)c3ccccc3n2)ccc1Cl` [IIc-24, [2-(4-Chloro-3-methylphenylamino)-quinazolin-4-yl]-(5-cyclopropyl-2H-pyrazol-3-yl)-amine] showed a melting point of 244 to 246 °C. Further, the Ki in series [1] was < 100 nM. Moreover, the Ki in series [2] was < 100 nM. For the same compound, the Ki in series [3] (read-out: Ki value on SRC) was < 100 nM.
As for `Cc1cc(Nc2nc(Nc3ccc(N)cc3)nc3ccccc23)n[nH]1` [IIc-66, [2-(4-Aminophenylamino)-quinazolin-4-yl]-(5-methyl-2H-pyrazol-3-yl)-amine], the melting point was 164 to 167 °C. Moreover, the Ki in series [1] lay in the range of 100 to 1000 nM. The compound also returned a Ki in series [2] of 100 to 1000 nM. Besides, in series [3] (read-out: Ki value for SRC), the Ki lay in the range of 1000 to 6000 nM.
As to `c1csc(CNc2nc(Nc3cc(C4CC4)[nH]n3)c3ccccc3n2)c1` [IIc-35, (5-Cyclopropyl-2H-pyrazol-3-yl)-[2-(thiophen-2-methylamino)-quinazolin-4-yl]-amine], the melting point is 212 °C. Further, the Ki in series [1] was < 100 nM. Besides, the Ki in series [2] was < 100 nM. Further, the Ki in series [3] (read-out: Ki value on SRC) was < 100 nM.
With `Cc1cc(Nc2nc(Sc3ccc(C(=O)NCCN4CCOCC4)cc3)nc3ccccc23)n[nH]1` [IIa-65, (5-Methyl-2H-pyrazol-3-yl)-{2-[4-(2-morpholin-4-yl-ethylcarbamoyl)-phenylsulfanyl]-quinazolin-4-yl}-amine], the melting point is 246 to 248 °C. In addition, the inhibitory constant (Ki) in series [1] was in the range of 100 to 1000 nM. Moreover, the inhibition constant Ki in series [2] was in the range of 1000 to 7000 nM. In addition, the Ki in series [3] (read-out: Ki value for SRC) lay in the range of 1000 to 6000 nM.
For the compound `CN(Cc1cccnc1)c1nc(Nc2cc(C3CC3)[nH]n2)c2ccccc2n1` [IIc-3], the melting point was 177 °C. Besides, in series [1], the Ki is < 100 nM. In addition, the Ki in series [2] is < 100 nM. Besides, the Ki in series [3] (read-out: Ki value on SRC) was < 100 nM.
The compound `COc1cccc(Nc2nc(Nc3cc(C4CC4)[nH]n3)c3ccccc3n2)c1` [IIc-44, (5-Cyclopropyl-2H-pyrazol-3-yl)-[2-(3-methoxyphenylamino)-quinazolin-4-yl]-amine] showed a melting point of 207 to 211 °C. For the same compound, the Ki in series [1] was < 100 nM. For the same compound, the Ki in series [2] lay within 100 to 1000 nM. Moreover, in series [3] (read-out: Ki value on SRC), the Ki is < 100 nM.
Take `CC(=O)Nc1ccc(Sc2nc(Nc3cc(C)n[nH]3)c3ccc(OCCCN4CCOCC4)cc3n2)cc1` [IIa-45, [2-(4-Acetamidophenylsulfanyl)-7-(3-morpholin-4-yl-propoxy)-quinazolin-4-yl]-(5-methyl-2H-pyrazol-3-yl)-amine]: the melting point was 153 °C (dec.). The Ki in series [1] was < 100 nM. Also, in series [2], the Ki lay in the range of 1000 to 7000 nM. In addition, the Ki in series [3] (read-out: Ki value for SRC) fell in the range of 1000 to 6000 nM.
As for `Cc1cc(Nc2nc(NCC3CCCCC3)nc3ccccc23)n[nH]1` [IIc-8, (2-Cyclohexylmethylamino-quinazolin-4-yl)-(5-methyl-2H-pyrazol-3-yl)-amine], the melting point was found to be 211 °C. In series [1], the Ki is < 100 nM. The inhibitory constant (Ki) in series [2] was < 100 nM. Besides, in series [3] (read-out: Ki value on SRC), the Ki was < 100 nM.
As to `CCS(=O)(=O)Nc1ccc(Sc2nc(Nc3cc(C)[nH]n3)c3ccccc3n2)cc1` [IIa-55, [2-(4-Ethylsulfonylamino-phenylsulfanyl)-quinazolin-4-yl]-(5-methyl-2H-pyrazol-3-yl)-amine], the melting point fell in the range of 279 to 280 °C. For the same compound, the Ki in series [1] was < 100 nM. In series [2], the Ki was in the range of 100 to 1000 nM. In addition, the Ki in series [3] (read-out: Ki value for SRC) was in the range of 1000 to 6000 nM.
For `c1ccc(OCc2nc(Nc3cc(C4CC4)[nH]n3)c3ccccc3n2)cc1` [IId-1, (5-Cyclopropyl-2H-pyrazol-3-yl)-(2-phenoxymethyl-quinazolin-4-yl)-amine], the melting point is 265 to 267 °C. The Ki in series [1] is < 100 nM. Further, the Ki in series [2] was < 100 nM. The Ki in series [3] (read-out: Ki value on SRC) was < 100 nM.
